Test results as given in patent US9445594B2, “Molecules having certain pesticidal utilities, intermediates, compositions, and processes, related thereto” (priority 2014, dated 2016).

Legend:
Type in all cases: in vivo
[1] = system: Corn Earworm (Helicoverpa zea, HELIZE) ("CEW"); assay: Bioassays on CEW, 128-well diet tray assay; settings: 168 h, second instar larvae, 50 μg/cm^2 on artificial diet, 25° C., five to seven days, average of eight wells, read-out: CEW % Control (or Mortality) rating
Experimental: Certain molecules disclosed in this document were tested against BAW, CEW, and CL using procedures described in the following examples. In the reporting of the results, the “BAW, CEW, & CL Rating Table” was used (See Table Section).
Bioassays on CEW were conducted using a 128-well diet tray assay. one to five second instar CEW larvae were placed in each well (3 mL) of the diet tray that had been previously filled with 1 mL of artificial diet to which 50 μg/cm^2 of the test compound (dissolved in 50 μL of 90:10 acetone-water mixture) had been applied (to each of eight wells) and then allowed to dry. Trays were covered with a clear self-adhesive cover, and held at 25° C., 14:10 light-dark for five to seven days. Percent mortality was recorded for the larvae in each well; activity in the eight wells was then averaged. The results are indicated in the table entitled “Table ABC: Biological Results” (See Table Section). Bioassays on CL

[2] = system: Yellow Fever Mosquito (Aedes aegypti, AEDSAE) ("YFM"); assay: Bioassays on YFM, 96-well plate larval assay; settings: about 1 day-old larvae, from 4000 ppm DMSO master plate diluted, room temperature, scored after 3 days
How it was run: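 Compounds from 4000 ppm DMSO master plates, diluted in 90:10 water:acetone, dispensed into 96-well plates, six replicates. About 1-day-old larvae added in liver-powder water. Wells covered, held 3 days at room temperature, then scored for mortality.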

[3] = system: Beet Armyworm (Spodoptera exigua, LAPHEG) ("BAW"); assay: Bioassays on BAW, 128-well diet tray assay; settings: 168 h, second instar larvae, 50 μg/cm^2 on artificial diet, 25° C., five to seven days, average of eight wells, read-out: BAW % Control (or Mortality) rating
How it was run: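 One to five second-instar larvae were placed per well on artificial diet surface-treated with 50 μg/cm^2 compound from 90:10 acetone-water, dried before infestation. Trays were held at 25 °C, 14:10 light-dark, for five to seven days. Percent mortality was averaged over eight wells.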

[4] = system: Green Peach Aphid (Myzus persicae, MYZUPE) ("GPA"); assay: Bioassays on GPA, foliar spray of infested cabbage seedlings; settings: 72 h, 200 ppm spray on cabbage seedlings, graded after three days, Abbott corrected % control, read-out: GPA % Control (or Mortality) rating
How it was run: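 Cabbage seedlings (2-3 true leaves) infested with 20-50 wingless adult and nymph aphids one day before spraying to runoff at 200 ppm in aqueous 0.025% Tween 20 with 20% acetone/methanol. Live aphids counted after three days at ~25 °C; % control by Abbott's correction versus solvent-check plants.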

[5] = system: Cabbage Looper (Trichoplusia ni, TRIPNI) ("CL"); assay: Bioassays on CL, 128-well diet tray assay; settings: 168 h, second instar larvae, 50 μg/cm^2 on artificial diet, 25° C., five to seven days, average of eight wells, read-out: CL % Control (or Mortality) rating
How it was run: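 Second-instar larvae (one to five per well) on artificial diet surface-treated with 50 μg/cm^2 compound in 90:10 acetone-water, eight wells per treatment. Held at 25° C., 14:10 light-dark for five to seven days. Percent mortality scored per well and averaged over the eight wells.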

Compound | mortality at 50 µg/cm2 [1] [%] | YFM % Control (or Mortality) rating [2] | mortality at 50 µg/cm2 [3] [%] | mortality at 200 ppm [4] [%] | mortality at 50 µg/cm2 [5] [%]
CN(C)c1ccc(NC(=S)NCc2ccc(-c3ncn(-c4ccc(OC(F)(F)C(F)(F)F)cc4)n3)cc2)cc1 [F112, 1-(4-(Dimethylamino)phenyl)-3-(4-(1-(4-(perfluoroethoxy)phenyl)-1H-1,2,4-triazol-3-yl)benzyl)thiourea] | 0 | D (No activity noticed in this bioassay) | 0 to 50 | 0 | –
Cc1ccc(C)n1-c1ccccc1NC(=S)Nc1ccc(-c2ncn(-c3ccc(OC(F)(F)F)cc3)n2)cc1 [F75, 1-(2-(2,5-Dimethyl-1H-pyrrol-1-yl)phenyl)-3-(4-(1-(4-(trifluoromethoxy)phenyl)-1H-1,2,4-triazol-3-yl)phenyl)thiourea] | 50 to 100 | D (No activity noticed in this bioassay) | 50 to 100 | 0 | 50 to 100
CC(=O)N(C(=S)Nc1cccc(C)c1)c1ccc(-c2ncn(-c3ccc(OC(F)(F)F)cc3)n2)cc1 [F67, N-(m-tolylcarbamothioyl)-N-(4-(1-(4-(trifluoromethoxy)phenyl)-1H-1,2,4-triazol-3-yl)phenyl)acetamide] | 0 | D (No activity noticed in this bioassay) | 0 to 50 | 0 | –
COc1ccc(NC(=S)NCc2ccc(-c3ncn(-c4ccc(OC(F)(F)C(F)(F)F)cc4)n3)cc2)cc1 [F110, 1-(4-methoxyphenyl)-3-(4-(1-(4-(perfluoroethoxy)phenyl)-1H-1,2,4-triazol-3-yl)benzyl)thiourea] | 0 | D (No activity noticed in this bioassay) | 50 to 100 | 0 | –
CC(C)c1ccccc1NC(=S)Nc1ccc(-c2ncn(-c3ccc(C(F)(F)F)cc3)n2)cc1 [F53, 1-(2-isopropylphenyl)-3-(4-(1-(4-(trifluoromethyl)phenyl)-1H-1,2,4-triazol-3-yl)phenyl)thiourea] | 50 to 100 | A (80-100) | 50 to 100 | 0 to 80 | –
COc1ccc(NC(=S)NCc2ccc(-c3ncn(-c4ccc(OC(F)(F)C(F)(F)F)cc4)n3)cc2)c(C)c1 [F111, 1-(4-methoxy-2-methylphenyl)-3-(4-(1-(4-(perfluoroethoxy)phenyl)-1H-1,2,4-triazol-3-yl)benzyl)thiourea] | 50 to 100 | A (80-100) | 50 to 100 | 0 | –
